Here are results for 13 compounds from article PMC6428247, “Potent inhibitors of equine steroid isomerase EcaGST A3-3” (PLoS ONE, 2019).

Several values for one entry are separate records, joined by “and”; a condition that tells them apart may be missing. Equal values may be shown once. Where a name gives a salt, the structure may show the parent alone.

The target of test [1] is T1, EcaGST A3-3 (Equus caballus, UniProt M9ZT87). In words: Inhibition of EcaGST A3-3 activity, GSH conjugation with CDNB. Format: biochemical, Equus ferus caballus. Conditions: for inhibition at 10 µM: read-out: Inhibition (%) of EcaGST A3-3; for IC50: 100 mM sodium phosphate pH 6.5, 30°C, read-out: IC50 EcaGST A3-3, substrate CDNB. As to the method:
The final solvent concentration in the reaction system was kept at 5% (v/v) as a maximum.
(§1) The conjugation of GSH with the electrophilic substrate CDNB was used as a biochemical assay for general activity measurements. Screening of the US Drug library for inhibition was done in triplicates in 96-well plates in a Thermo Scientific Multiskan GO spectrophotometer. The conjugation activity at 30°C was monitored at 340 nm for 1 min in 0.1 M sodium phosphate buffer at pH 6.5 and 10 μM inhibitor concentration in a final volume of 300 μL. Initial concentrations of GSH and CDNB were 1 mM.
Assay conditions for inhibition measurements of enzyme activity with CDNB were the following: EcaGST A3-3 15 nM, initial concentrations of GSH and CDNB 1 mM, inhibitor concentrations varying from 0.029 μM to 15 μM, in 100 mM Na2HPO4/NaH2PO4 at pH 6.5.
The reactions were followed spectrophotometrically for 1 min at 30°C using a Shimadzu UV-2501 PC spectrophotometer (Shimadzu Inc.). All experiments included triplicate measurements in each data point.
The equation for competitive inhibition fitted by non-linear regression was v=Vmax[S]/KM(1+[I]/Ki)+[S] where [S] is the substrate concentrations and [I] is the inhibitor concentration.

The subject of test [2] is HsaGST P1-1. Details: method as in PMID 23769903. Conditions: 3.3 μM inhibitor, 1 mM GSH, 1 mM CDNB, pH 6.5, 30°C; cited from earlier work.
Test [3] addresses T2, HsaGST M2-2 (Homo sapiens, UniProt P28161).
T2 construct: made in house
T2 sequence (P28161 1-218): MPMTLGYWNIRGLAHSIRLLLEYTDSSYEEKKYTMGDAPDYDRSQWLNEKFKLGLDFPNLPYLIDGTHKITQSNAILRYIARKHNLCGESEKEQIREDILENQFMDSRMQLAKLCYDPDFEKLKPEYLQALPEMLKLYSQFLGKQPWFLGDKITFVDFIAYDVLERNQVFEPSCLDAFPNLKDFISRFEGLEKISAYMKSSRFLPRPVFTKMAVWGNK
In words: Inhibition of HsaGST M2-2 CDNB activity. Type of test: biochemical. Conditions: 1 mM GSH, 1 mM CDNB, pH 6.5, 30°C; for IC50: CDNB activity, read-out: IC50 HsaGST M2-2. As to the method: (§2) EcaGST A3-3 [10], HsaGST A3-3 [12] and HsaGST M2-2 [13] were cloned, expressed and purified as described previously. Protein concentration was determined by means of the Bradford assay.
as §1
(§3) For understanding the effects of pharmacological interventions based on GST inhibitors, it is important to know the selectivity among the numerous GSTs. […] All values were determined with CDNB, which is a common substrate for all the enzymes.

For test [4], the target named is T1, EcaGST A3-3. Put plainly: Inhibition of EcaGST A3-3 steroid double-bond isomerase activity with Δ^5-AD. Format: biochemical, Equus ferus caballus. Conditions: for IC50 EcaGST A3-3, substrate Δ^5-AD: 0.1 mM Δ^5-AD, 25 mM sodium phosphate pH 8.0, 30°C.
Test [5] has as its system HsaGST S1-1. More on the design: method as in PMID 25603235. Conditions: 1 mM GSH, 1 mM CDNB, pH 6.5, 30°C, cited from earlier work; for Inhibition (%) of HsaGST S1-1: 10 μM inhibitor.
The target in test [6] is T3, HsaGST A3-3 (Homo sapiens, UniProt Q16772).
T3 construct: made in house
T3 sequence (Q16772 1-222): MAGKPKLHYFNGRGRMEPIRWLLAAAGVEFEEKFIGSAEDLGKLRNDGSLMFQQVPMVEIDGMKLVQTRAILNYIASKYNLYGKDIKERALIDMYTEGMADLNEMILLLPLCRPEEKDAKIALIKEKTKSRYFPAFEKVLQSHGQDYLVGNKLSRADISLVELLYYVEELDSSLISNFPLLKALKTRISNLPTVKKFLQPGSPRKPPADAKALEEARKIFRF
In words: Inhibition of HsaGST A3-3 CDNB activity. Type of test: biochemical. Conditions: 1 mM GSH, 1 mM CDNB, pH 6.5, 30°C; for IC50: CDNB activity. On the procedure: as §2, §1, §3

The mark [7] stands for this setting: 10 μM inhibitor, 1 mM GSH, 1 mM CDNB, sodium phosphate pH 6.5, 30°C.

T1 sequence (M9ZT87 entry or part of it): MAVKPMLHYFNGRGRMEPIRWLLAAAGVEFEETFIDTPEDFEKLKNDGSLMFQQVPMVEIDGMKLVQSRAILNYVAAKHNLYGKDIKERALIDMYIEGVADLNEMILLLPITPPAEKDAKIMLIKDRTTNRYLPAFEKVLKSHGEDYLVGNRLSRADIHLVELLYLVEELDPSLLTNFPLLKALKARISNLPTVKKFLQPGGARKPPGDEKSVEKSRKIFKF

For orientation: inhibition means the change of the read-out against control, counted positive when it falls. On to `CCN(CCCc1ccccc1)CCCc1ccccc1` [Alverine citrate], for which the inhibition at 10 µM in test [1] (setting [7]) is 31 ± 17%.
Turning to `NCC(=O)CCC(=O)O` [Aminolevulinic acid hydrochloride], in test [1] (setting [7]), the inhibition at 10 µM stood at 32 ± 11%.
Broadly, the IC50 is the concentration that inhibits the measured activity by half. For orientation: Ki means a dissociation constant, usually derived from enzyme kinetics or from competition with a known ligand. Low readings indicate higher affinity, high ones lower affinity. In the case of `O=C1c2c(O)cccc2Cc2cccc(O)c21` [Anthralin], in test [2], the “Inhibition (%) of HsaGST P1-1” value is recorded as 22%. In addition, the inhibition at 10 µM was 80% in test [3] (10 μM inhibitor, read-out: Inhibition (%) of HsaGST M2-2); 96 ± 1.8% in test [1] (setting [7]); 88% in test [6] (pH 6.5, 10 μM inhibitor, read-out: Inhibition (%) of HsaGST A3-3). In addition, the concentration for half-maximal inhibition (IC50) in test [4] was 85 ± 4.8 nM; in test [5] (CDNB activity) it was 24 µM; in test [1] (1 mM CDNB, 1 mM GSH), 2100 ± 270 nM; in test [6], 720 nM. Besides, the “IC50 EcaGST A3-3, substrate Δ^5-AD” value in test [4] (1 mM GSH) was “submicromolar range”. The Ki in test [4] (Ki, EcaGST A3-3, substrate Δ^5-AD, Δ^5-AD varied, 1 mM GSH, 0.09 μM inhibitor) was 90 nM and 93 nM. In test [4] (dose-response curve, substrate Δ^5-AD, mean ± SD), the “Hill coefficient, Δ^5-AD inhibition” value was determined as 1.9±0.19. For the same compound, the “Times more potent with Δ^5-AD as substrate than with CDNB” value in test [4] (ratio of IC50 values CDNB vs Δ^5-AD, EcaGST A3-3) was “approximately 25 times”. The “Inhibition modality, substrate Δ^5-AD” value in test [4] (Δ^5-AD varied, 1 mM GSH) is “Competitive”. The “Inhibition (%) of HsaGST S1-1” value in test [5] is on record as 84%. The “Hill coefficient, CDNB inhibition” value in test [1] (dose-response curve, substrate CDNB, mean ± SD) came to 2.0±0.43.
Turning to `OC[C@H]1O[C@H]([S-])[C@H](O)[C@@H](O)[C@@H]1O.[Au+]` [Aurothioglucose], the “Inhibition (%) of HsaGST P1-1” value in test [2] is < 4%. Moreover, the “Inhibition (%) of HsaGST M2-2” value in test [3] (10 μM inhibitor) came to 85%. Also, the 50% inhibitory concentration (IC50) in test [3] amounted to 12 µM; in test [1] (1 mM CDNB, 1 mM GSH), 850 ± 120 nM; in test [6], 910 nM. Also, the “IC50 EcaGST A3-3, substrate Δ^5-AD” value in test [4] (1 mM GSH) is listed as “Anomalous curve”. In addition, the “Inhibition (%) of HsaGST S1-1” value in test [5] is 24%. For the same compound, the “Inhibition (%) of EcaGST A3-3” value in test [1] (setting [7]) is 78 ± 28%. The “Inhibition (%) of HsaGST A3-3” value in test [6] (10 μM inhibitor) was found to be 96%.
For the compound `O=C(Nc1ccc(C(=O)O)c(O)c1)c1ccccc1` [Benzoylpas], the concentration for half-maximal inhibition (IC50) in test [3] came to 2.5 µM.
The Km is the substrate concentration at which the rate is half of its maximum. `O=[N+]([O-])c1ccc(Cl)c([N+](=O)[O-])c1` [CDNB, 1-chloro-2,4-dinitrobenzene]: in test [1] (read-out: Km of substrate CDNB with EcaGST A3-3, 1 mM GSH, fitted with and without ethacrynic acid), the Michaelis constant (Km) is 1.26 ± 0.082 mM.
Consider `CCCCCCCCCCCCCCCC(=O)OC[C@@H](NC(=O)C(Cl)Cl)[C@H](O)c1ccc([N+](=O)[O-])cc1` [Chloramphenicol palmitate], for which, in test [1] (setting [7]), the inhibition at 10 µM was determined as 40 ± 1%.
On the same count and under the same terms, next, `CC[C@H]1OC(=O)[C@H](C)[C@@H](O[C@H]2C[C@@](C)(OC)[C@@H](O)[C@H](C)O2)[C@H](C)[C@@H](O[C@@H]2O[C@H](C)C[C@H](N(C)C)[C@H]2O)[C@](C)(OC)C[C@@H](C)C(=O)[C@H](C)[C@@H](O)[C@]1(C)O` [Clarithromycin]: 36 ± 7%; `Oc1c(I)cc(Cl)c2cccnc12` [Clioquinol]: 64 ± 21%.
Take `CC(C)/N=c1\cc2n(-c3ccc(Cl)cc3)c3ccccc3nc-2cc1Nc1ccc(Cl)cc1` [Clofazimine]: in test [1] (setting [7]), the inhibition at 10 µM amounted to 52 ± 14%.
As for `C[C@]12CC[C@@H]3c4ccc(OS(=O)(=O)O)cc4CC[C@H]3[C@@H]1CCC2=O` [Estropipate], the inhibition at 10 µM in test [1] (setting [7]) came to 37 ± 23%.
Consider `C=C1C[C@@H]2[C@H](CC[C@]3(C)C(=O)CC[C@@H]23)[C@@]2(C)C=CC(=O)C=C12` [Exemestane], for which the inhibition at 10 µM in test [1] (setting [7]) stood at 41 ± 12%.
As for `CC(C)n1c(/C=C/C(O)CC(O)CC(=O)O)c(-c2ccc(F)cc2)c2ccccc21` (centres unmarked) [Fluvastatin sodium], the inhibition at 10 µM in test [1] (setting [7]) stood at 31 ± 24%.
